Reference: ChEMBL document CHEMBL1127008, “Synthesis of myo-inositol 1,2,4,5-tetrakisphosphate, a Ca2+-mobilising tetrakisphosphate with a potency similar to myo-inositol 1,4,5-trisphosphate” (Bioorg Med Chem Lett, 1993)
pEC50, pKi: −log10 of the molar value.

What was measured:
Rattus norvegicus = species on record: Rattus norvegicus; experiment: Enzyme kinetics constant (Km value) was determined in rat brain homogenate […]; type: functional
[1] = Compound was evaluated for its ability to mobilize calcium from [Ca(2+)]-preloaded SH-SY5Y cells permeabilised using saponin; type: functional, cell-based; settings: Homo sapiens
Homo sapiens [2] = species on record: Homo sapiens; experiment: Enzyme kinetics constant (Km value) was determined in human erythrocyte membrane […]; type: functional
[3] = Inhibition of Ins(1,4,5)P3 phosphorylation by rat brain homogenate; type: functional
Homo sapiens [4] = species on record: Homo sapiens; experiment: Compound was evaluated for the inhibition of [3H]- Ins(1,4,5)P3 dephosphorylation by human erythrocyte membrane Ins(1,4,5)P3 5-phosphatase; type: functional
[5] = molecular target: Inositol 1,4,5-trisphosphate-gated calcium channel ITPR3 (Bos taurus, UniProt Q8WN95); experiment: Compound was evaluated for its ability to displace [3H]Ins(1,4,5)P3 from membranes prepared from bovine adrenal corticles
[6] = Compound was evaluated for its ability to mobilize calcium in 1321NI cells; type: functional, cell-based
[7] = Compound was evaluated for its ability to mobilize calcium from [Ca(2+)]-preloaded SH-SY5Y cells permeabilised using saponin; devoid of [Ca2+] mobilising activity; type: functional, cell-based, Homo sapiens

Sequence of Inositol 1,4,5-trisphosphate-gated calcium channel ITPR3 (Q8WN95 whole entry): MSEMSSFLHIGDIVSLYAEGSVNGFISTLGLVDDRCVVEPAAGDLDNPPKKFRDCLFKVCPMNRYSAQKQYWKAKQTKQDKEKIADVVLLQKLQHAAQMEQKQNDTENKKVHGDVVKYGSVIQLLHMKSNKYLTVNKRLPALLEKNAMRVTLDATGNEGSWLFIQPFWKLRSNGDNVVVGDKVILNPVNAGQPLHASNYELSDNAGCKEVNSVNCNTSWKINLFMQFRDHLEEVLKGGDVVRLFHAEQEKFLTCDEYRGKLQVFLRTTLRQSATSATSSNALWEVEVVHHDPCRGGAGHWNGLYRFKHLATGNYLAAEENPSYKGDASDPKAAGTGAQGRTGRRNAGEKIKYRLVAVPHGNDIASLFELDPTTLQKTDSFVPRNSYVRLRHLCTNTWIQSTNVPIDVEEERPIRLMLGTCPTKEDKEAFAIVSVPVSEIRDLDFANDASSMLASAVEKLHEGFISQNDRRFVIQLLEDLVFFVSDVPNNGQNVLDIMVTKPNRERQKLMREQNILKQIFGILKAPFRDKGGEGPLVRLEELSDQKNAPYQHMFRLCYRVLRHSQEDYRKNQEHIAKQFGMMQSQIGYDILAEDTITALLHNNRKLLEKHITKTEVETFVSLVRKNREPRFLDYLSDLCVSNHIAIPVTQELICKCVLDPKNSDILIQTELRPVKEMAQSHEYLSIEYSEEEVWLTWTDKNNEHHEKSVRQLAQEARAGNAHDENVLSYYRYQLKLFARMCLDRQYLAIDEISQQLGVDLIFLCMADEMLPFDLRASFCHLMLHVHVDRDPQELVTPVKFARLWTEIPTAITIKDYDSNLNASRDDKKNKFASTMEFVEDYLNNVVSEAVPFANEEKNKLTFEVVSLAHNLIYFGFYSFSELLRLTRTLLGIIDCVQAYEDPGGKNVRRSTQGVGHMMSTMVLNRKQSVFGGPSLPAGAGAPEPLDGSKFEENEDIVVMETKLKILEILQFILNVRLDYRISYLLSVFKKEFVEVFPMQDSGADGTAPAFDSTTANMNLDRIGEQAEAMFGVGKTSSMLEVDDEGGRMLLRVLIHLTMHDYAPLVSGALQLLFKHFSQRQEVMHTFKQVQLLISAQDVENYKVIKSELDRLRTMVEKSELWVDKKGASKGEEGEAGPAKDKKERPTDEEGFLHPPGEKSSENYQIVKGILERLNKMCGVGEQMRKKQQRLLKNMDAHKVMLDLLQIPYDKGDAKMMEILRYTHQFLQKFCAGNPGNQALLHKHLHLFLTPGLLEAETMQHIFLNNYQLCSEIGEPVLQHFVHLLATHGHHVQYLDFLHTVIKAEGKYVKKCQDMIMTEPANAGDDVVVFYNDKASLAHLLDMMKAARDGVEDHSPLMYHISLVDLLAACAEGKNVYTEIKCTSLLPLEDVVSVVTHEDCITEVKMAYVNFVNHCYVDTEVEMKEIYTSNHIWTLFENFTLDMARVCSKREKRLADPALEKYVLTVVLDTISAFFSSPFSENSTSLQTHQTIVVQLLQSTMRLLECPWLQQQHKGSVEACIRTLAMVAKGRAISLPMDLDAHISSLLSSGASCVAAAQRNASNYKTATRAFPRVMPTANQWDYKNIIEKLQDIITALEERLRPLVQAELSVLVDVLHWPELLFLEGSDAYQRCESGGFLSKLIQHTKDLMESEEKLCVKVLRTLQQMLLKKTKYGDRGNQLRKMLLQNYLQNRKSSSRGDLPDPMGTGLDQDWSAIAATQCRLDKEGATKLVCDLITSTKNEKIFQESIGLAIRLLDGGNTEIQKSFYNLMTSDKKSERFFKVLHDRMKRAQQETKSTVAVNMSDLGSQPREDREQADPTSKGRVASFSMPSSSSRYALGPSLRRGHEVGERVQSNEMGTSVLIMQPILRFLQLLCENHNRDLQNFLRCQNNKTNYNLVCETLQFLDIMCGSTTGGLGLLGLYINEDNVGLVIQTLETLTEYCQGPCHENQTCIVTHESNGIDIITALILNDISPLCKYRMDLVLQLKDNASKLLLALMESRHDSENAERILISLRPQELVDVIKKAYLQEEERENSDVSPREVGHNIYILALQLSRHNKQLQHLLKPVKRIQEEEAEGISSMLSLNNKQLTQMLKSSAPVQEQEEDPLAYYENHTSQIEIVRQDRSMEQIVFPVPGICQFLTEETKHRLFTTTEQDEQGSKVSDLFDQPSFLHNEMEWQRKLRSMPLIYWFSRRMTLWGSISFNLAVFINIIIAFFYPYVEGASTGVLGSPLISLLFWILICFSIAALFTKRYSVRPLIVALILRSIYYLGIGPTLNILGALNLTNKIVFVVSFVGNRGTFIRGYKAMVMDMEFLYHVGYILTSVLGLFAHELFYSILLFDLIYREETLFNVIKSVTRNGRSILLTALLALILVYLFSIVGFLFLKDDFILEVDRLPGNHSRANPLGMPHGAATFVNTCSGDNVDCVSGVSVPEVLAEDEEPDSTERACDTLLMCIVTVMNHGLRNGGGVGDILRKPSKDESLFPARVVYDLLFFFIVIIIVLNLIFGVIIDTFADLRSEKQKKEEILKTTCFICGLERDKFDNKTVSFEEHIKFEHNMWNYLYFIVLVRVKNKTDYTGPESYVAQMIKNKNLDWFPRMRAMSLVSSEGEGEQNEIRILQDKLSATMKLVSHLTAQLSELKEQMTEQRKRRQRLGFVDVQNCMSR

Compound	Km (Rattus norvegicus) [µM]	pEC50 [1]	Km (Homo sapiens [2]) [µM]	pKi [3]	pKi (Homo sapiens [4])	pKi [5]	pEC50 [6]	EC50 [7]
O=P(O)(O)O[C@@H]1[C@H](O)[C@H](O)[C@@H](OP(=O)(O)O)[C@H](OP(=O)(O)O)[C@H]1O [INS(1,4,5)P3]	1.5	7.28	31.8	–	–	–	–	–
O=C(OC1C(OP(=O)(O)O)C(OP(=O)(O)O)C(OC(=O)c2ccccc2)C(OP(=O)(O)O)C1OP(=O)(O)O)c1ccccc1 (centres undefined)	–	–	–	4.00	4.80	> 5.52	> 4.00	Not Active
O=P(O)(O)O[C@H]1[C@H](O)[C@@H](OP(=O)(O)O)[C@H](OP(=O)(O)O)[C@@H](OP(=O)(O)O)[C@H]1O	–	5.68	–	–	–	–	–	–
